Measured values published in patent US20120315629A1, “Cloning and Expression of arNOX Protein Transmembrane 9 Superfamily (TM9SF), Methods and Utility” (Nox Technologies ,Inc., priority 2009, published 2012).

Target: T1, Recombinant arNOX (TM9SF4) (Homo sapiens, UniProt Q92544)
T1 construct: cloning of the soluble fragment of TM9SF4 was successful; Met-Ala-Ser leader from NdeI/NheI of pET11b (my inference from the forward primer CATATGGCTAGCATG); made in house; host or cells: E. coli BL21 (DE3), pET11b
T1 sequence (Q92544 24-252): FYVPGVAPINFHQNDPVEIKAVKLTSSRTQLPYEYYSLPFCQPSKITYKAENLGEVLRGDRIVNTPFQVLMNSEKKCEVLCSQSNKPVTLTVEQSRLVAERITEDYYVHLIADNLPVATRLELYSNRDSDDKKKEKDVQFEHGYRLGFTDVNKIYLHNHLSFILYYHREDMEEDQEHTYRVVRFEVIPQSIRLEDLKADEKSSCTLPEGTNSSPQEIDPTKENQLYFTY
Assay: arNOX activity: superoxide generation measured by reduction of ferricytochrome c
Type: biochemical
Conditions: test compounds added after 45 min, reaction continued for an additional 45 min; for inhibition of recombinant arNOX (TM9SF4) activity: extracts made in water unless otherwise indicated
Description: Reduction of ferric cytochrome c by superoxide was employed as a standard measure of superoxide formation (Mayo, L. A. and Curnutte, J., 1990, Meth. Enzymol. 186:567-575; Butler, J. et al., 1982, J. Biol. Chem. 257:10747-10750). This method, when coupled to superoxide dismutase inhibition, is generally accepted for the measurement of superoxide generation. The assay consists of 150 μl buffy coat material in PBSG buffer (8.06 g NaCl, 0.2 g KCl, 0.18 g Na2HPO4, 0.13 g CaCl2, 0.1 g MgCl2, 1.35 g glucose dissolved in 1000 ml deionized water, adjusted to pH 7.4, filtered and stored at 4° C.). Reduction of ferricytochrome c by superoxide was monitored as the increase in absorbance at 550 nm, with reference at 540 nm (Butler et al., 1982). As a further control for the specificity of the arNOX activity, 60 units of superoxide dismutase (SOD) were added near the end of the assay to ascertain that the rate returned to base line. Rates were determined using a SLM Aminco DW-2000 spectrophotometer in the dual wavelength mode of operation.
Rates were determined using an SLM Aminco DW-2000 spectrophotometer (Milton Roy, Rochester, N.Y.) in the dual wave length mode of operation with continuous measurements over 1 min every 1.5 min. After 45 min, test compounds were added and the reaction was continued for an additional 45 min. After 45 min, a millimolar extinction coefficient of 19.1 cm^−1 was used for reduced ferricytochrome c. The results of the test compounds are provided below (Table 4) for experiments carried out with TM9SF4, but from the results of FIG. 7, it is concluded that all the arNOX isoforms have similar responses to the various compounds given below. Extracts were made of the compounds in water unless otherwise indicated.

inhibition of recombinant arNOX (TM9SF4) activity [%] | Molecule | sensitivity of recombinant arNOX (TM9SF4) activity to the compound (in words)
80 | O=C(O)c1cc(O)c(O)c(O)c1 [gallic acid] | 
 | CCC(C)C(=O)OC1C(=O)OC2CC3C(C)=CC(=O)C(O)C3(C)C3C(O)C(O)C4(C)OCC23C14 (stereo not drawn) [similikalactone D] | resistant
78 | superoxide dismutase | 
